Measured values published in US20040167459A1, “Methods and systems for controlling and/or increasing iontophoretic flux” (priority 2003, published 2004).
Where two headings read alike, the source gives them in different places.

Key:
[1] = HEM; for Transference number: 0.5 mA DC
Protocol: (§1) FIG. 1 schematically depicts the setup employed to carry out human epidermal membrane (HEM) iontophoretic experiments described below. Scleral experiments were conducted using a simple side-by-side diffusion apparatus known to one of ordinary skill in the art. Conductive silver paint was purchased from Ladd Research Technologies (Williston, Vt.) and silver foil from EM-Science (Gibbstown, N.J.). Silver chloride powder, phosphate buffered saline (PBS, pH 7.4) tablets were purchased from Sigma (St. Louis, Mo.). ^14C-sodium salicylate was purchased from ARC (St. Louis, Mo.) and non-radiolabeled sodium salicylate from Sigma. Ultimate Gold® scintillation cocktail was purchased from Packard (Meriden, Conn.) and liquid scintillation counting was performed by a Packard TriCarb Model 1900 TR liquid scintillation analyzer. A custom built AC waveform generator power supply (EM-Tech Electronics, Lindon Utah) was used as the permeabilzation power supply for skin studies. The DC driving force for the skin studies was a 9 V battery (Duracell) combined with a fixed resistor. For scleral studies, there was no permeabilization source needed and all iontophoresis was conducted using a Phoresor PM-800 (Iomed, Inc., Salt Lake City, Utah). Human epidermal membrane was obtained from licensed sources and experiments were conducted under local IRB approval. Scleral tissue was obtained from freshly euthanized rabbit cadavers under local IACUC approval. All water was >18 MΩ prepared by the Milli-Q process. Ionac® MA-3475 (Sybron Chemical, Inc., Birmingham, N.J.) was pre-loaded with sodium salicylate by vigorously stirring the membranes in a 0.15 M sodium salicylate solution spiked with the radiolabel. Loading was considered complete when the DPM counts in the loading solution varied by less than 10% over a 12 hour period. The MA-3475 membranes were assembled in a group of five membranes and placed in the diffusion cell setup.
Permeabilized skin transport experiments were conducted using a side-by-side type diffusion cell with an open diffusional area of 0.85 Cm^2. The cells were separated by a piece of dermatomed, heat-separated human epidermal membrane with the stratum corneum facing the donor compartment.
The DC iontophoresis driving electrodes were prepared by dipping a silver foil strip into a 1:1 (w/w) mixture of conductive silver paint and finely ground silver chloride. After dipping, the electrodes were hung and allowed to cure at room temperature overnight. The AC permeabilizing electrodes were made by mechanically drilling holes into a piece of silver foil and electro-coating the perforated silver foil with AgCl by submersion in a saturated KCl solution and passing a 1 mA current for 10 minutes.
(§2) The receiver compartment was filled with 0.15 M PBS. In each experiment, the donor compartment contained 0.15 M sodium salicylate in water spiked with 25 nCi/ml ^14C-sodium salicylate.
A 1000 Hz AC potential was applied to decrease and maintain the skin resistance to 2 and 0.5 kΩ and a 9 V battery was connected to a fixed resistor in series to yield a direct current of 0.5 mA. Every 30 minutes, the entire volume of the receiver solution was removed, mixed with scintillation cocktail, and analyzed by liquid scintillation counting. All experiments were conducted at least in duplicate.
The amount of ^14C-salicylate transported across the membrane was plotted as a function of time. Permeabilities were determined from the following equations: [formula]
where J is the flux, Q is the amount of solute transported across the membrane, A is the area of the exposed membrane, t is time, P is the permeability, and CD is the concentration of the solute in the donor solution.
Permeabilities were plotted as a function of time and the slope of the best-fit line to the steady state portion of the curve was determined using regression analysis.

[2] = rabbit sclera
Protocol: as §1
Scleral transport experiments were conducted using a side-by-side type diffusion cell with an open diffusional area of 0.2 cm^2. The cells were separated by a piece of excised scleral tissue from adult rabbits. The diffusion cells were assembled with the conjunctival side facing the donor compartment.
The DC iontophoresis driving electrodes were prepared by dipping a silver foil strip into a 1:1 (w/w) mixture of conductive silver paint and finely ground silver chloride. After dipping, the electrodes were hung and allowed to cure at room temperature overnight.
as §2
Direct current DC was applied at currents of 0.5, 1, and 2 mA with a Phoresor. Every 30 minutes, the entire volume of the receiver solution was removed, mixed with scintillation cocktail, and analyzed by liquid scintillation counting. All experiments were conducted in triplicate.
The amount of ^14C-salicylate transported across the membrane was plotted as a function of time. Permeabilities were determined from the equations (8) and (9) and plotted and analyzed as in Example 1.

O=C([O-])c1ccccc1O.[Na+] [Salicylate, sodium salicylate]
Transference number ([1]; AC + DC, 0.5 kΩ, PSM +): 0.32 ± 0.03 | Transference number ([1]; AC + DC, 0.5 kΩ, PSM none): 0.12 ± 0.01 | Transference number ([1]; AC + DC, 2 kΩ, PSM +): 0.16 ± 0.03 | Transference number ([1]; AC + DC, 2 kΩ, PSM none): 0.12 ± 0.01 | Transference number ([1]; DC only, PSM +): 0.18 ± 0.03 | Transference number ([1]; DC only, PSM none): 0.13 ± 0.01 | increase in current carried by the drug due to permselective membrane ([1]; AC permeabilization, target resistance 2 kΩ): about 30% | current carried by the drug ([1]; AC permeabilization, target resistance 2 kΩ, no permselective membrane): 12% | current carried by the drug ([1]; AC permeabilization, target resistance 2 kΩ, permselective membrane present): 16% | gain in current carried by the drug due to permselective material ([1]; purely DC iontophoresis): about 40% | current carried by the drug ([1]; purely DC iontophoresis, permselective material present): 18% | current carried by the drug ([1]; purely DC iontophoresis, without permselective material): 13% | increase in electrical transference efficiency due to permselective membrane ([1]; target resistance 0.5 kΩ): ~300% | electrical transference efficiency ([1]; target resistance 0.5 kΩ, with permselective membrane): 32% | electrical transference efficiency ([1]; target resistance 0.5 kΩ, without permselective membrane): 12% | increase of transference number by the permselective membrane [2]: between two- and three-fold | Salicylate Flux ([2]; DC 0.4 mA, PSM +): 21 ± 0.3 µg/min | Transference number ([2]; DC 0.4 mA, PSM +): 0.675 ± 0.073 | Salicylate Flux ([2]; DC 0.4 mA, PSM none): 13 ± 0.1 µg/min | Transference number ([2]; DC 0.4 mA, PSM none): 0.385 ± 0.007 | Salicylate Flux ([2]; DC 1.0 mA, PSM +): 48 ± 1.0 µg/min | Transference number ([2]; DC 1.0 mA, PSM +): 0.563 ± 0.013 | Salicylate Flux ([2]; DC 1.0 mA, PSM none): 21 ± 0.2 µg/min | Transference number ([2]; DC 1.0 mA, PSM none): 0.235 ± 0.007 | Salicylate Flux ([2]; DC 2.0 mA, PSM +): 109 ± 7.0 µg/min | Transference number ([2]; DC 2.0 mA, PSM +): 0.650 ± 0.048 | Salicylate Flux ([2]; DC 2.0 mA, PSM none): 36 ± 2.0 µg/min | Transference number ([2]; DC 2.0 mA, PSM none): 0.210 ± 0.014 | enhancement of salicylate flux by the permselective membrane ([2]; depending on current level): two- to three-fold | current carried by the drug ([2]; with permselective membrane): approximately 65%
